In one experiment the target is AHCY enzyme (UniProt P23526). The experiment can be described thus: In vitro AHCY activity assay (ThioGlo1 fluorescence). The following applies: recombinant expressed human or mouse AHCY enzyme; SAH substrate; ThioGlo1 readout. Type of experiment: biochemical. The procedure:
In vitro AHCY Activity Assay
The AHCY activity of the compounds of the invention can be measured by the following in vitro assay.
The AHCY enzyme assay is based on the principle of fluorescence emission following incubation of a reactive dye with the products of an AHCY catalyzed reaction. The reactive dye (Thioglo1) binds homocysteine through its thiol-containing moiety. The products of the AHCY catalyzed reaction, adenosine and homocysteine, are produced from the hydrolysis of SAH (s-adenosylhomocysteine) through AHCY's hydrolase activity.
The reaction is optimized in 96-, 384-, 1536- and 3456-assay plate formats with recombinant expressed human or mouse AHCY enzyme. When run under initial velocity conditions, the assay is suitable for IC50 and % inhibition calculations.
• 1) ThioGlo1 (catalog 595501, Calbiochem); 100 mM in DMSO • 2) SAH (catalog A-9384, Sigma); 4.69 mM with 0.06 N HCl • 3) Aristeromycin (catalog A-0928, Sigma); 100 mM in DMSO • 4) NAD (catalog 43410, Sigma); 14.5 mM in water • 5) EDTA in 500 mM pH 8 (catalog BP2482-100, Fisher) • 6) DTT stock 200 mM in water • 7) AHCY enzyme (diluted with 100 mM tris pH7.5) Dilutions immediately prior to use: • 1. SAH 750 μM (10×) (dilute with 100 mM Iris pH 7.5) • 2. Aristeromycin (10×) (dilute to 1 mM with 100 mM Tris pH7.5) • 3. ThioGlo1 (10×) (dilute to 100 μM in Tris pH7.5) • 4. […] Read plate (Ex 380 Em 510)

Experiment [1] has as its system AHCY in HEK293 and/or SH-SY5Y cells. The experiment can be described thus: Cell-based assay of AHCY inhibition (secreted homocysteine). The following applies: secreted homocysteine from Hek293 or SH-SY5Y cells, 72 hrs compound treatment. The source says: Cell-Based Assay of AHCY Inhibition
The AHCY activity of the compounds of the invention can be measured by the following cell-based assay.
Post treatment collection of the adherent Hek293 and/or SH-SY5Y cells is also made for a viability and proliferation measure. Since the amount of secreted homocysteine is limited by the amount of SAH that is converted to homocysteine in the cells and its subsequent secretion, an EC50 measure and % inhibition relative to DMSO control cells can be made. Since the amount of secreted metabolites such as homocysteine can also be related to the absolute and cellular viability, an MTT (3-(4,5-Dimethylthiazol-2-yl)-2,5-diphenyltetrazolium bromide) measure of proliferation and relative cytotoxicty (as compared to control conditions) may also be made.
• 1. The day before compound treatment, plate 20,000 cells (Hek293 or SH-SY5Y) in 96 well cell culture treated plates in 100 μl of cell culture media (DMEM and 10% fetal bovine serum). • 2. Add fresh media plus compound (and DMSO treated controls) for 72 hrs. • 3. Collect conditioned media for measurement of secreted homocysteine and perform viability/proliferation assay on adherent cells. Measure of Secreted Homocysteine: • 1. […]
a. […] Detection: Fluorescence: Excitation 385 nm, Emission 515 nm • v. […]
b. […] absorbance at 550 nm and 690 nM. • 6. Express readout as 550 nM-690 nM.

These results are taken from patent US8329697B2, “Imidizo[1,2-A]pyrazines useful as AHCY hydrolase inhibitors” (Merck Sharp & Dohme Corp., priority 2008, dated 2012).

The structures appear in SMILES notation.

Turning to `Nc1nccn2c([C@@H]3CC[C@@H](O)[C@H]3O)cnc12` [Example 2, (1R,2S,3S)-3-(8-aminoimidazo[1,2-a]pyrazin-3-yl)cyclopentane-1,2-diol], the IC50 was found to be 692 nM at AHCY enzyme and 1.4 nM in experiment [1].

As to `Nc1nccn2c([C@@H]3C=C(CO)[C@@H](O)[C@H]3O)cnc12` [Example 1, (1S,2R,5S)-5-(8-aminoimidazo[1,2-a]pyrazin-3-yl)-3-(hydroxymethyl)cyclopent-3-ene-1,2-diol], the IC50 (on AHCY enzyme; in experiment [1]) was 4 nM each time.
